Square brackets hold non-standard residues; d marks the D form. Ends that are not written are not given here. Peptide text beside a SMILES is read from it. Hyp = O=C(O)[C@@H]1C[C@@H](O)CN1
Columns and labels:
[1] = pooled haemolymph of 10 vitellogenic females in insect Ringer's solution containing Hepes buffer; details: C. vomitoria, 24° C., up to 24 hours
[2] = pooled haemolymph of C. vomitoria in insect Ringer's solution containing Hepes buffer, pH 7.0; details: C. vomitoria (10 vitellogenic females), 24° C., up to 24 hours
[3] = tested on: Met-callatostatin antisera; assay: Liquid-phase absorption of Met-callatostatin antisera (ICC control); type: binding, rabbit; details: at 50 μM
Source text: A variety of tissues including brain, corpora cardiaca-CA-hypocerebral ganglion complex, thoracicoabdominal ganglion, and the entire gut were fixed in aqueous Bouin's fluid, embedded in paraffin, and sectioned at 6 μm (Duve et al in Cell Tissue Res. 251, 399-415 (1988)). The peroxidase-antiperoxidase method of Sternberger (publ. "Immunocytochemistry" 1974)) was used in combination with the three Met-callatostatin antisera, from rabbits D1, D2 and D3, each of which gave essential, the same results. The results presented here were obtained mainly with antiserum from rabbit D1 bleed 5 used at a concentration of 1:2000 for 24 h at 4° C. Other tissues, including the brain, thoracicoabdominal ganglion, and the gut, complete with its neural connections, were fixed in 4% paraformaldehyde for whole-mount studies using the indirect immunofluorescence technique with either UV or confocal laser scanning microscopy. After fixation, tissues were washed in phosphate-buffered saline and permeabilized in methanol in phosphate-buffered saline. The tissues were washed in phosphate-buffered saline containing 0.2% bovine serum albumin and Triton X-100 (PBT buffer). Incubation of tissues with the Met-callatostatin antisera was at 4° C. over 24 h. […]

[4] = tested on: Juvenile Hormone III release from corpora allata of virgin P. americana; assay: Radiochemical assay, inhibition of JH III release from isolated corpora allata of P. americana; type: cell-based, Periplaneta americana; details: 4- to 6-day-old virgin females, three hour incubations, read-out: IC50, inhibition of JH release from isolated CA
Experimental: (§1) Peptides identified from the extracts were synthesized (Affinity Research Products) and tested in radiochemical assays to determine their effects on the synthesis and release of juvenile hormone bisepoxide from the isolated CA of vitellogenic female C. vomitoria. Similar assays were also carried out on the CA of the cockroaches P. americana (4- to 6-day-old virgin females) and B. germanica (6-day-old virgin females). Details of the methods used have been published previously (C. vomitoria in Duve et al in Proc. Nat'l. Acad. Sci. USA 90 2456-2460 (1993), P. americana in Weaver et al in C Comp. Pharmacol. Toxicol. 107, 119-127 (1994), and Weaver, R. C. in J. Insect Physiol. 37, 111-118 (1991), and B. germanica in Piulachs et al in A Comp. Physiol. 102, 477-480 (1992). For C. vomitoria and P. americana the donor methyl group for incorporation into the JH was provided by L-[methyl-^14 C]methionine, 2.04 GBq/mmol (Amersham International plc), added to methionine-free TCC 199 medium to give a final concentration of 260 μM and for B. germanica by L-[methyl-^3 H]methionine, 3.03 TBq/mmol (Amersham) added to TCC 199 medium containing methionine to achieve a concentration of 100 μM and a final specific activity of 7.4 GBq/mmol.
For comparison, the activity of Met-callatostatin was also assayed. […]

[5] = tested on: juvenile hormone bisepoxide release from the CA of C. vomitoria; assay: Radiochemical assay, release of juvenile hormone bisepoxide from isolated CA of C. vomitoria; type: cell-based, Calliphora vomitoria; details: results not shown
Experimental: as §1

[6] = tested on: hindgut of C. vomitoria; assay: Inhibition of peristalsis of the hindgut (ileum) of C. vomitoria; parameters: species or system Calliphora vomitoria; details: for inhibition of normal peristaltic movements of the ileum: at 1 μm, normal movements 9-10/min
Experimental: Adult female C. vomitoria were fed sugar, water and meat for 7 days prior to studying the effect of synthetic peptides (Affinity Research Products Ltd, Nottingham) on gut motility. The stage of development of the oocytes of each fly was recorded to provide a physiological base line. The gut and reproductive system were transferred to a 100-μl Sylgard chamber (Sylgard 184, Dow Corning) and bathed in a Calliphora Ringer's solution (Duve et al in Regul. Pept. 35 145-159 (1991)). Peristaltic movements of the ileum and the other forms of contraction in the rest of the gut and reproductive musculature were observed under a microscope. The preparation was superfused with several washes of Ringer's solution, after which peristaltic movements of the ileum were counted over a 2-minute period. The bathing fluid was replaced with fresh Ringer's solution containing the test peptide and the counting repeated. This procedure could be carried out many times for a single preparation.
Peptide solutions were made up in Ringer's solution on the day of the experiments, which were carried out at 22° C. Approximately 50 female flies were used.
Each point represents the mean of 5-16 measurements from a number of different vitellogenic female flies (callatostatin is abbreviated to cast in the figure).

[7] = type: in vitro ADME, Periplaneta americana; details: for peptide remaining after incubation with haemolymph: 24 h
Experimental: Degradation of the Met-callatostatins induced by the haemolymph was assessed by measuring the difference between the amount of added peptide at the start of the incubation period and the total immunoassayable material present at its conclusion. Since the radioimmunoassay (RIA) is carboxy-terminal specific, any degradation at the carboxy-terminus, as for example by metalloendopeptidases able to cleave the Phe-Gly bond (Lamango et al in Insect Biochem. Mol. Biol. 23, 801-808 (1993)), would render the molecule non-immunoreactive. On the other hand partial amino-terminus degradation would result in peptides able to bind to the anti-Met-callatostatin antibodies present in the RIA solution. The mixture remaining after incubation would, therefore, contain all intact molecules and any degradation products with a carboxy-terminus of sufficient length to cross-react within the RIA. Experiments were carried out in an insect Ringer's solution containing Hepes buffer (Holman et al in Insect Biochem 21 107-112 (1991)) at 24° C. and pH 7.0 over several time periods from 15 minutes to 24 hours. In some experiments EDTA (10 mM final concentration) was added with the purpose of inhibiting metalloendopeptidases. For both C. vomitoria and P. americana 1 μl of a […] peptide solution was added to 20 μl of Ringer's solution and 15 μl pooled haemolymph. For C. vomitoria 15 μl was taken from the pooled haemolymph of 10 vitellogenic females, and for P. americana the same volume was obtained from 3-4 ootheca-carrying females. At the conclusion of the incubation period 5 μl of an 8% solution of trichloroacetic acid was added to stop the degradation process. The mixture was centrifuged for 1 minute, an 40 μl of the supernatant was added to 20 μl of water, 0.1% trifluoroacetic acid (TFA) prior to chromatography. Chromatography was carried out on a Kromasil™ (Technicol) C18 250×4.6 mm, 5 μm, 300 Å column with a gradient of 0-30% CH3 CN, 0.1% TFA at a flow rate of 1 ml/min with a rate of change of 1.0%/min. Fractions that were immunoreactive in the Met-callatostatin RIA were rechromatographed on a Delta Pak™ (Waters) C18 250×2.1 mm, 5 μm, 300 Å column with a gradient of 10-30% CH3 CN, 0.1% TFA at a flow rate of 0.2 ml/min with a rate of change of 0.5%/min. Peaks of Met-callatostatin-immunoreactive material were measured by RIA, and amino acid sequences were determined.

[8] = tested on: JH release from CA of B. germanica; assay: Radiochemical assay, inhibition of JH release from isolated corpora allata of B. germanica; type: cell-based, Blattella germanica; details: results not shown
Experimental: as §1

[9] = pooled haemolymph of P. americana in insect Ringer's solution containing Hepes buffer, pH 7.0; details: P. americana (3-4 ootheca-carrying females), 24° C., up to 24 hours

| Compound | fragment found [1] | fragment found [2] | abolition of immunostaining by absorption of antisera [3] | IC50 [4] | effect on the release of juvenile hormone bisepoxide from the CA [5] | inhibition of normal peristaltic movements of the ileum [6] | IC50 ([6]; monophasic dose-response curve) | cleavage product identified after incubation [7] | degradation by enzymes in the haemolymph of cockroaches [7] | degradation in haemolymph [7] | peptide remaining after incubation with haemolymph [7] | IC50 [8] | fragment found [9] |
| --- | --- | --- | --- | --- | --- | --- | --- | --- | --- | --- | --- | --- | --- |
| GP[Hyp]YDFGM-NH2 | oxidised form of the parent compound | oxidised form of the parent compound, 2-hour | – | – | – | – | – | – | – | – | – | – | – |
| GPPYDFGM-NH2 [Met-callatostatin, Gly-Pro-Pro-Tyr-Asp-Phe-Gly-Met-NH2] | – | – | abolished the immunostaining | 0.1 nM | neither peptide had any effect | completely inhibited | 100 nM | Tyr-Asp-Phe-Gly-Met-NH2 | able to degrade | degraded to approximately the same extent as in C. vomitoria | less than 10% | 1000 nM | – |
| CSCC[C@H](NC(=O)CNC(=O)[C@H](Cc1ccccc1)NC(=O)[C@H](CC(=O)O)NC(=O)[C@H](Cc1ccc(O)cc1)NC(=O)[C@@H]1C[C@@H](O)CN1C(=O)[C@@H]1CCCN1C(=O)CN)C(N)=O [[Hyp^3]Met-callatostatin, Gly-Pro-Hyp-Tyr-Asp-Phe-Gly-Met-NH2] (H-GP[Hyp]YDFGM-NH2) | – | – | abolished the immunostaining | 0.1 nM | neither peptide had any effect | completely inhibited | – | not | not | more resistant | less than 10% | 1000 nM | – |
| CSCC[C@H](NC(=O)CNC(=O)[C@H](Cc1ccccc1)NC(=O)[C@H](CC(=O)O)NC(=O)[C@H](Cc1ccc(O)cc1)NC(=O)[C@@H]1CCCN1C(=O)[C@@H]1C[C@@H](O)CN1C(=O)CN)C(N)=O [[Hyp^2]Met-callatostatin, Gly-Hyp-Pro-Tyr-Asp-Phe-Gly-Met-NH2] (H-G[Hyp]PYDFGM-NH2) | – | – | – | – | – | – | – | – | not | – | – | – | – |
| GPPYDFGM-NH2 | oxidised form of the parent compound | oxidised form of the parent compound, 2-hour | – | – | – | – | – | – | – | – | – | – | Tyr-Asp-Phe-Gly-Met-NH2 (SEQ ID NO:9), 2-hour |

Reference: US5863763A (British Technology Group Ltd., priority 1994, dated 1999)
